Patent publication US9156837B2, “Heterocyclic compound” (Takeda Pharmaceutical Company Limited, priority 2011, dated 2015)

Key:
RORγt [1] = target: T1, RORγt (Homo sapiens, UniProt P51449); experiment: RORγt binding test (TR-FRET, fluorescent-labeled cholesterol); details: test compound 1 μM, histidine-tagged RORγt, read-out: binding inhibitory rate of fluorescent-labeled cholesterol to RORγt
T1 sequence (P51449 1-497 isoform P51449-2): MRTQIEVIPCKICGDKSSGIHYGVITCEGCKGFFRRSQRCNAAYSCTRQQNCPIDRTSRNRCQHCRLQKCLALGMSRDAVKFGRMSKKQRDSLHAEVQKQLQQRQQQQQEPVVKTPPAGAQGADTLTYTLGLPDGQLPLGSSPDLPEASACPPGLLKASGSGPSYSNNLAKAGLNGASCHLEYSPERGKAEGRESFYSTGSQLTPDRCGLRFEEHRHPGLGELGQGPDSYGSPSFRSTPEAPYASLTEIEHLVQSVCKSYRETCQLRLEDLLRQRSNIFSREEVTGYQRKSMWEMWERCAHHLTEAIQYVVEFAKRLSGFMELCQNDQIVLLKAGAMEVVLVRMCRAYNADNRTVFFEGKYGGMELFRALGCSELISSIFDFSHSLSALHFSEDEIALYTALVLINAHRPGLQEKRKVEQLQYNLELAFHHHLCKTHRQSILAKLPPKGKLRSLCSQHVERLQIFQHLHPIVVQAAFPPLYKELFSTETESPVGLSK
Experimental: The binding activity of the test compound to RORγt was measured by a time resolved fluorescence resonance energy transfer method (TR-FRET) utilizing histidine-tagged RORγt, fluorescent-labeled cholesterol (BODIPY-cholesterol, AVIVA), and terbium-labeled anti-histidine tag antibody (Invitrogen). First, a test compound diluted with an assay buffer (20 mM Tris-HCl (pH 7.5), 100 mM NaCl, 1 mM DTT, 0.1% BSA) was added to a 384 well plate by 3 μL. Then, RORγt diluted with an assay buffer to 240 nM was added by 3 μL, after which fluorescent-labeled cholesterol diluted with the assay buffer to 12 μM was added by 3 μL, and the mixture was stood at room temperature for 20 min. Thereafter, a terbium-labeled anti-histidine tag antibody diluted with the assay buffer to 8 nM was added by 3 μL. The mixture was stood at room temperature for 20 min, and fluorescence intensity (excitation wavelength 320 nm, fluorescence wavelength 520 nm, delay time 100 microseconds) was measured by Envision (PerkinElmer).
The results (binding inhibitory rate of fluorescent-labeled cholesterol to RORγt at test compound 1 μM) measured by the above-mentioned method are shown in Table 2.

RORγt [2] = target: T1, RORγt; experiment: Cofactor recruitment test (Alpha Screen, biotinylated SRC-1 peptide); type: biochemical; details: test compound 1 μM, RORγt and biotinylated SRC-1 peptide, read-out: signal value inhibitory rate
Experimental: Cofactor recruitment test was performed by Alpha Screen (Histidine Detection Kit, PerkinElmer) method. First, a test compound was diluted with an assay buffer (50 mM Tris-HCl (pH 7.5), 50 mM KCl, 1 mM DTT, 0.1% BSA) and added to a 384 well plate by 5 μL. Then, RORγt diluted with an assay buffer to 125 nM was added by 10 μL each, after which solutions of 25 nM biotinylated SRC-1 peptide (biotin-[…]), 12.5 μg/mL acceptor beads and 12.5 μg/mL donor beads prepared with the assay buffer were added by 10 μL each. The mixture was stood in a dark place for 1 hr, and the signal value was measured by Envision (PerkinElmer).

RORγt [3] = target: T1, RORγt; experiment: Jurkat reporter test (human IL-17 ROR response element luciferase); type: cell-based; details: test compound 3 μM; Jurkat cells transfected with IL-17 ROR response element luciferase reporter and RORγt vector; cultured overnight; read-out: luminescence level inhibitory rate
Experimental: The Jurkat cells used for the reporter test were cultured in a culture medium (RPMI (Invitrogen), 10% FCS (AusGeneX), 100 U/mL penicillin, 100 μg/mL streptomycin). On the day of the test, 4×10^7 cells were recovered by a centrifugal operation (1000 rpm, 5 min.) and suspended in PBS (phosphate buffered saline) (Invitrogen). Thereafter, the cells were recovered again by a centrifugal operation, and suspended in 2 mL of R buffer (NEON transfection kit, Invitrogen). Then, a reporter vector 53 μg wherein a human IL-17 ROR response element was inserted into the upstream of luciferase of pGL 4.28 (Promega), and a vector (27 μg) wherein RORγt sequence was inserted into the downstream of CMV promoter were added to the cell suspension. Gene transfer was performed by Electroporation apparatus (NEON, Invitrogen) under the conditions of pulse voltage 1350 V, interval 10 milliseconds, number of times 3. The cells after gene transfer were suspended in 40 mL of a reaction medium (RPMI, 10% Lipid reduced FCS (HyClone), 10 mM HEPES (pH 7.5), 100 U/mL penicillin, 100 μg/mL streptomycin, 5 μM lovastatin), and plated in a 96 well plate by 90 μL. A test compound diluted with the reaction medium was added by 10 μL, and the cells were cultured overnight in an incubator. Bright-Glo (Promega) was added by 100 μL, and the mixture was stirred at room temperature for 10 min, and the luminescence level was measured by Envision (PerkinElmer).
The results (luminescence level inhibitory rate at test compound 3 μM) measured by the above-mentioned method are shown in Table 4.

[4] = tested on: CD4 positive naive T cells (differentiation into Th17 cells); experiment: Mouse Th17 cell differentiation induction test; type: cell-based; details: 96 h; test compound 10 μM; BALB/c mouse CD4 positive naive T cells; 4 days; ELISA; read-out: inhibitory rate (IL-17A in culture supernatant, Th17 differentiation)
Experimental: CD4 positive naive T cells were collected from the spleen cells of BALB/c mice (female, 8-11w) using CD4+CD62L+ T Cell Isolation kit II (Miltenyi Biotec). The CD4 positive naive T cells were plated in a 96 well plate (3×10^5 cells/well), stimulated (37° C. for culture) with anti-mouse CD3ε antibody (10 μg/mL, solid phase) and anti-CD28 antibody (5 μg/mL) for 4 days in the presence of anti-IFN-γ antibody, anti-IL-4 antibody, anti-IL-2 antibody, IL-6, TGF-β and IL-23 to allow for differentiation into Th17 cells. The compound was dissolved in DMSO and then added. The cells were cultured under these conditions for 4 days, the concentration of IL-17A in the culture supernatant obtained by centrifugation was measured by ELISA, and differentiation of the Th17 cells was evaluated.

[5] = tested on: CD4 positive naive T cells (differentiation into Th17 cells); experiment: Human Th17 cell differentiation induction test; type: cell-based; details: 144 h, test compound 10 μM, 6 days, ELISA, read-out: inhibitory rate (IL-17A in culture supernatant, Th17 differentiation)
Experimental: Using peripheral blood mononuclear cells (PBMC) collected from human peripheral blood by a density gradient centrifugation method, CD4 positive naive T cells were collected. The CD4 positive naive T cells were plated in a 96 well plate (2×10^4 cells/well), and stimulated (37° C. for culture) with anti-CD3/28Ab Dynabeads for 6 days in the presence of IL-1β, IL-6, IL-23, TGFβ, anti-IFNγ Ab, anti-IL-4 Ab to allow for differentiation into Th17 cells. The compound was dissolved in DMSO and then added. After culture for 6 days, the concentration of IL-17A in the culture supernatant obtained by centrifugation was measured by ELISA, and differentiation of the Th17 cells was evaluated.

[6] = tested on: Peripheral blood mononuclear cells (PBMC); experiment: Human PBMC IL17 production test; type: cell-based; details: 72 h; test compound 10 μM; human PBMC stimulated by anti-CD3/CD28 Dynabeads; 3 days; ELISA; read-out: inhibitory rate (IL-17A in culture supernatant, IL-17 production)
Experimental: Peripheral blood mononuclear cells (PBMC) collected from human peripheral blood by a density gradient centrifugation method were stimulated by Dynabeads (registered trade mark; anti-CD3/CD28 antibody) and cultured at 37° C. for 3 days. The compound was dissolved in DMSO and then added. After culture for 3 days under such conditions, the concentration of IL-17A in the culture supernatant obtained by centrifugation was measured by ELISA, and the activity of the compound on IL-17 production was evaluated.

Structure (SMILES)	inhibition at 1 µM (RORγt [1])	inhibition at 1 µM (RORγt [2])	inhibition at 3 µM (RORγt [3])	inhibition at 10 µM [4]	inhibition at 10 µM [5]	inhibition at 10 µM [6]
COc1ccc(-c2c(-c3nc(CC(=O)NCC4CCOCC4)cs3)cnn2C(C)(C)C)cc1 [Example 39, 2-{2-[1-tert-butyl-5-(4-methoxyphenyl)-1H-pyrazol-4-yl]-1,3-thiazol-4-yl}-N-(tetrahydro-2H-pyran-4-ylmethyl)acetamide]	98.7%	101%	101%	95%	100%	91.3%
CC(C)(C)n1ncc(-c2nc(CC(=O)NCC3CCOCC3)cs2)c1-c1ccc(F)cc1 [Example 14, 2-{2-[1-tert-butyl-5-(4-fluorophenyl)-1H-pyrazol-4-yl]-1,3-thiazol-4-yl}-N-(tetrahydro-2H-pyran-4-ylmethyl)acetamide]	92%	109%	81%	77%	–	–
CC(C)(C)n1ncc(-c2nc(CC(=O)NCC3CCOCC3)cs2)c1-c1ccccc1 [Example 41]	94.6%	101%	82.1%	92.6%	–	–
CN(Cc1ccncc1)C(=O)Cc1csc(-c2cnn(C(C)(C)C)c2-c2ccc(F)cc2)n1 [Example 18, 2-{2-[1-tert-butyl-5-(4-fluorophenyl)-1H-pyrazol-4-yl]-1,3-thiazol-4-yl}-N-methyl-N-(pyridin-4-ylmethyl)acetamide]	96.1%	102%	87.1%	96.3%	–	–
CC(C)(C)n1ncc(-c2nc(CC(=O)NCC3CCOCC3)cs2)c1-c1ccc(C#N)cc1 [Example 43, 2-{2-[1-tert-butyl-5-(4-cyanophenyl)-1H-pyrazol-4-yl]-1,3-thiazol-4-yl}-N-(tetrahydro-2H-pyran-4-ylmethyl)acetamide]	98.3%	101%	94.2%	78.6%	–	–

More lines, main results first:

inhibition at 1 µM (RORγt [1])	inhibition at 1 µM (RORγt [2])	inhibition at 3 µM (RORγt [3])	Structure (SMILES)	inhibition at 10 µM [4]	inhibition at 10 µM [5]	inhibition at 10 µM [6]
95.4%	99.8%	85.7%	CC(C)(C)n1ncc(-c2nc(CC(=O)NCc3cccnc3)cs2)c1-c1ccc(F)cc1 [Example 79, 2-{2-[1-tert-butyl-5-(4-fluorophenyl)-1H-pyrazol-4-yl]-1,3-thiazol-4-yl}-N-(pyridin-3-ylmethyl)acetamide]	69%	–	–
97.8%	101%	97.1%	CC(C)(C)n1ncc(-c2nc(CC(=O)NCC3CCOCC3)cs2)c1-c1ccc(Cl)cc1 [Example 128, 2-{2-[1-tert-butyl-5-(4-chlorophenyl)-1H-pyrazol-4-yl]-1,3-thiazol-4-yl}-N-(tetrahydro-2H-pyran-4-ylmethyl)acetamide]	97.7%	–	–
95.9%	95.4%	96%	COc1ccc(-c2c(-c3nc(CC(=O)NCC4CCOCC4)cs3)cnn2C(C)(C)C)cc1F [Example 152, 2-{2-[1-tert-butyl-5-(3-fluoro-4-methoxyphenyl)-1H-pyrazol-4-yl]-1,3-thiazol-4-yl}-N-(tetrahydro-2H-pyran-4-ylmethyl)acetamide]	91.2%	–	92%
86.5%	100%	94.4%	CC(C)(C)n1ncc(-c2nc(CC(=O)NCc3ccc(-n4ccnc4)cc3)cs2)c1-c1ccc(F)cc1 [Example 170, 2-{2-[1-tert-butyl-5-(4-fluorophenyl)-1H-pyrazol-4-yl]-1,3-thiazol-4-yl}-N-[4-(1H-imidazol-1-yl)benzyl]acetamide]	–	–	–
98.7%	99.3%	98.4%	CC(C)(C)n1ncc(-c2nc(CC(=O)NCC3CCOCC3)cs2)c1-c1cc2ccccc2s1 [Example 150, 2-{2-[5-(1-benzothiophen-2-yl)-1-tert-butyl-1H-pyrazol-4-yl]-1,3-thiazol-4-yl}-N-(tetrahydro-2H-pyran-4-ylmethyl)acetamide]	97.7%	–	92%
95.3%	78.6%	94.9%	O=C(Cc1csc(-c2cnn(C3CCCCC3)c2-c2ccc(F)cc2)n1)NCC1CCOCC1 [Example 51, 2-{2-[1-cyclohexyl-5-(4-fluorophenyl)-1H-pyrazol-4-yl]-1,3-thiazol-4-yl}-N-(tetrahydro-2H-pyran-4-ylmethyl)acetamide]	86%	–	–
87.3%	98.8%	84.1%	CCCN(Cc1ccccc1)C(=O)Cc1csc(-c2cnn(C(C)(C)C)c2-c2ccc(F)cc2)n1 [Example 97, N-benzyl-2-{2-[1-tert-butyl-5-(4-fluorophenyl)-1H-pyrazol-4-yl]-1,3-thiazol-4-yl}-N-propylacetamide]	95%	–	–
